Test results: ChEMBL document CHEMBL4507263, “Data for DCP probe BAY-474” (2021)
Active and inactive are the calls of the source. The rule behind the calls is not given here.

What was measured:
[1] = target: Gamma-aminobutyric acid type B receptor subunit 1 (Homo sapiens) (UniProt Q9UBS5); experiment: Inhibition of GABAB1A at compound concentration of 10.0 uM in the Eurofins-Panlabs radioligand binding assay (Eurofins_assay_228610); parameters: ligand concentration 4 nM; conditions: Compound concentration 10.0 uM
[2] = target: Ephrin type-B receptor 3 (Homo sapiens) (UniProt P54753); experiment: EphB3 (h) Millipore kinase activity assay; conditions: Compound concentration 1.0 uM
[3] = target: RAC-gamma serine/threonine-protein kinase (Homo sapiens) (UniProt Q9Y243); experiment: PKBgamma (h) Millipore kinase activity assay; conditions: Compound concentration 1.0 uM
[4] = target: Serine/threonine-protein kinase DCLK2 (Homo sapiens) (UniProt Q8N568); experiment: DCAMKL2 (h) Millipore kinase activity assay; conditions: Compound concentration 1.0 uM
Serine/threonine-protein kinase DCLK2 (Homo sapiens), sequence (Q8N568 whole entry): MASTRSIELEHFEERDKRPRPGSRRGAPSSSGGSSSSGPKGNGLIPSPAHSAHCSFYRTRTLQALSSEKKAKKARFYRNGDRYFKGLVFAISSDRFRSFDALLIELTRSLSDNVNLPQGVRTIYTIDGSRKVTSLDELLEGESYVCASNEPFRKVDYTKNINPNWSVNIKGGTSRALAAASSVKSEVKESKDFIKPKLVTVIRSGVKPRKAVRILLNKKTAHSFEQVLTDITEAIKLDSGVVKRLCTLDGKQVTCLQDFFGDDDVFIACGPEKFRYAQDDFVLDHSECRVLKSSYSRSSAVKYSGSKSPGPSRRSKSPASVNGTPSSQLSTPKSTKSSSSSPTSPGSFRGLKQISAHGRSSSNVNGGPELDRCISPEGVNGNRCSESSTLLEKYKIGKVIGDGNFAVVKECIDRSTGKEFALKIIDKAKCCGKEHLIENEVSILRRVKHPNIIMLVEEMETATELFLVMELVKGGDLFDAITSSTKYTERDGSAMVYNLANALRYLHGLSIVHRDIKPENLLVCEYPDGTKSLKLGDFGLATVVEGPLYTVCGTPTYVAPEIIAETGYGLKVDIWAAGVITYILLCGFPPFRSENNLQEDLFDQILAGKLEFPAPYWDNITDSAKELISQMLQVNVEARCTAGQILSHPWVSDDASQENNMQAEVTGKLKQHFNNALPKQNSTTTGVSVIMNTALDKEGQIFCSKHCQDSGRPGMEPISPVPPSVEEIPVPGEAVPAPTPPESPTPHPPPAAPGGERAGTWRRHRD

[5] = target: Tyrosine-protein kinase JAK3 (Homo sapiens) (UniProt P52333); experiment: JAK3 (h) Millipore kinase activity assay; conditions: Compound concentration 1.0 uM
[6] = target: LIM domain kinase 1 (Homo sapiens) (UniProt P53667); experiment: LIMK1 (h) Millipore kinase activity assay; conditions: Compound concentration 1.0 uM
[7] = target: Ephrin type-A receptor 8 (Homo sapiens) (UniProt P29322); experiment: EphA8 (h) Millipore kinase activity assay; conditions: Compound concentration 1.0 uM
[8] = target: Ribosomal protein S6 kinase alpha-1 (Homo sapiens) (UniProt Q15418); experiment: Rsk1 (h) Millipore kinase activity assay; conditions: Compound concentration 1.0 uM
Ribosomal protein S6 kinase alpha-1 (Homo sapiens), sequence (Q15418 whole entry): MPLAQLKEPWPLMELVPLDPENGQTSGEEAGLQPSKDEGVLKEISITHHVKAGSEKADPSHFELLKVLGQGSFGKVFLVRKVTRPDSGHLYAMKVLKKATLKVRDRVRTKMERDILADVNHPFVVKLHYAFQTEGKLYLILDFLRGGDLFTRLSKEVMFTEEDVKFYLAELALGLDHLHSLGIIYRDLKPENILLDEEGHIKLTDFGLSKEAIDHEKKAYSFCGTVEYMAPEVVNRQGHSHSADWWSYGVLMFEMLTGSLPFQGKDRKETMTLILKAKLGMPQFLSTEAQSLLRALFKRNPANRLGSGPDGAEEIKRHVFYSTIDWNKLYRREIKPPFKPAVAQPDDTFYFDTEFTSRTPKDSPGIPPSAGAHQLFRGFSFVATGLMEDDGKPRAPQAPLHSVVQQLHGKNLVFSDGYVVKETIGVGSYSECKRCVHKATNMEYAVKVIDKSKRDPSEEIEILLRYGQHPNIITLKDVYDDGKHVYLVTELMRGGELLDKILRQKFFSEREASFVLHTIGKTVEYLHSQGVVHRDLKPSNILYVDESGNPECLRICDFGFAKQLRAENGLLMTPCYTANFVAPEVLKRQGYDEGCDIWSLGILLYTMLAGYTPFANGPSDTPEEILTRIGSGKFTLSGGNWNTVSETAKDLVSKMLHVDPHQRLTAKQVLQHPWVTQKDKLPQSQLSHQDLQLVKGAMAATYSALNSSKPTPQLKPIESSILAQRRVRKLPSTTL

[9] = target: Serine/threonine-protein kinase pim-2 (Homo sapiens) (UniProt Q9P1W9); experiment: Pim-2 (h) Millipore kinase activity assay; conditions: Compound concentration 1.0 uM
MKN-45 = experiment: Cell proliferation with […] cell line; format: functional; conditions: Homo sapiens
[10] = target: Serine/threonine-protein kinase Sgk1 (Homo sapiens) (UniProt O00141); experiment: SGK (h) Millipore kinase activity assay; conditions: Compound concentration 1.0 uM
[11] = target: Serine/threonine-protein kinase ULK3 (Homo sapiens) (UniProt Q6PHR2); experiment: ULK3 (h) Millipore kinase activity assay; conditions: Compound concentration 1.0 uM
Serine/threonine-protein kinase ULK3 (Homo sapiens), sequence (Q6PHR2 whole entry): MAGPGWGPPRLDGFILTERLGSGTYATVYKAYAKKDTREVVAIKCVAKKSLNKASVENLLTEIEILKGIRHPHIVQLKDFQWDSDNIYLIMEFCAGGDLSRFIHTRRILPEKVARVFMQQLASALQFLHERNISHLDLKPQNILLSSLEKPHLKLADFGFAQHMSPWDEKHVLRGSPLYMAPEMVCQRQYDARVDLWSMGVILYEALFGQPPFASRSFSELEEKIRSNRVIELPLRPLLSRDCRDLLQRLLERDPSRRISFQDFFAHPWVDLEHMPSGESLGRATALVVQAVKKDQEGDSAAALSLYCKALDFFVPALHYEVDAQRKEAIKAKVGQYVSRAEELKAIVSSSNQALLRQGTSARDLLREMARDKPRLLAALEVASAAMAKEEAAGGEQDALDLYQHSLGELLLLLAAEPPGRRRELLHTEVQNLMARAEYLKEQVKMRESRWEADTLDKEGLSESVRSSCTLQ

[12] = target: MAP kinase-activated protein kinase 5 (Homo sapiens) (UniProt Q8IW41); experiment: PRAK (h) Millipore kinase activity assay; conditions: Compound concentration 1.0 uM
[13] = target: Tyrosine-protein kinase Fer (Homo sapiens) (UniProt P16591); conditions: Compound concentration 1000.0 nM
Tyrosine-protein kinase Fer (Homo sapiens), sequence (P16591 whole entry, looked up): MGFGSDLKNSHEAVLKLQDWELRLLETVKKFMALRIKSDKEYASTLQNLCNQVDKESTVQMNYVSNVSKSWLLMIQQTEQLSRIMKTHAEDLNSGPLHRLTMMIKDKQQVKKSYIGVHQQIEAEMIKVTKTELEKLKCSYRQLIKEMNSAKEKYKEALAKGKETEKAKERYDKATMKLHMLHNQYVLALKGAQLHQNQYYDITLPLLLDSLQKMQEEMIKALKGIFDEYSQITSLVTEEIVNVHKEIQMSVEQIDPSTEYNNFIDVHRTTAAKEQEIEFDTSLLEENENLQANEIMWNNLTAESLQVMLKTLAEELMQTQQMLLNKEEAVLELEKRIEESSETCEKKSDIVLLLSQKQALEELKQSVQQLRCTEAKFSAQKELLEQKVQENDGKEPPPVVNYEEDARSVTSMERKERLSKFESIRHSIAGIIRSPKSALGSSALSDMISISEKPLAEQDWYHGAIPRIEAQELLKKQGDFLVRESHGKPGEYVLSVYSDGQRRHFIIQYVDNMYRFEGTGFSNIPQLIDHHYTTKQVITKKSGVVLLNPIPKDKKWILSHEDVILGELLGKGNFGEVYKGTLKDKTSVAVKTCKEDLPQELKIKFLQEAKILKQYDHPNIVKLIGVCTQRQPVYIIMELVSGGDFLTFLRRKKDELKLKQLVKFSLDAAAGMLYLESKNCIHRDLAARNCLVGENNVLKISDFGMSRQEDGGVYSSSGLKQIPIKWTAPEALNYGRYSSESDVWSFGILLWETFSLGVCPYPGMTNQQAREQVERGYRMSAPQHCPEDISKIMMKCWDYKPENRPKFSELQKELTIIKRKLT

[14] = target: Serine/threonine-protein kinase SIK3 (Homo sapiens) (UniProt Q9Y2K2); conditions: Compound concentration 1000.0 nM
[15] = target: Tyrosine-protein kinase ABL1 (Homo sapiens) (UniProt P00519); conditions: Compound concentration 1000.0 nM
[16] = target: Ribosomal protein S6 kinase alpha-2 (Homo sapiens) (UniProt Q15349); conditions: Compound concentration 1000.0 nM
[17] = target: Ephrin type-B receptor 4 (Homo sapiens) (UniProt P54760); conditions: Compound concentration 1000.0 nM
[18] = target: Serine/threonine-protein kinase 10 (Homo sapiens) (UniProt O94804); conditions: Compound concentration 1000.0 nM
[19] = target: Serine/threonine-protein kinase VRK2 (Homo sapiens) (UniProt Q86Y07); conditions: Compound concentration 1000.0 nM
[20] = target: Serine/threonine-protein kinase 4 (Homo sapiens) (UniProt Q13043); conditions: Compound concentration 1000.0 nM
[21] = tested on: Leucine-rich repeat serine/threonine-protein kinase 2 (Homo sapiens), Q5S007 [G2019S]; conditions: Compound concentration 1000.0 nM
[22] = target: Tyrosine-protein kinase Lck (Homo sapiens) (UniProt P06239); conditions: Compound concentration 1000.0 nM
[23] = target: Casein kinase II subunit alpha' (Homo sapiens) (UniProt P19784); conditions: Compound concentration 1000.0 nM
Casein kinase II subunit alpha' (Homo sapiens), sequence (P19784 whole entry, looked up): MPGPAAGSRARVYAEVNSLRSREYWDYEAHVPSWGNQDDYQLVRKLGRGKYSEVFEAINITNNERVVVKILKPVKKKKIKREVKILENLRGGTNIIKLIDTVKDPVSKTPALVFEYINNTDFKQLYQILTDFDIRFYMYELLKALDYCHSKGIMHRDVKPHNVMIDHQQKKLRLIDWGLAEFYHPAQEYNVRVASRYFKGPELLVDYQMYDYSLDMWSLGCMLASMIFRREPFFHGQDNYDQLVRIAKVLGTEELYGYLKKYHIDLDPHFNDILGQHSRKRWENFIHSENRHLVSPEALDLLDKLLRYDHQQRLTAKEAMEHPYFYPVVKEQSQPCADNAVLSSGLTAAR

[24] = target: Receptor tyrosine-protein kinase erbB-2 (Homo sapiens) (UniProt P04626); conditions: Compound concentration 1000.0 nM
[25] = target: Calcium/calmodulin-dependent protein kinase type 1B (Homo sapiens) (UniProt Q6P2M8); conditions: Compound concentration 1000.0 nM
[26] = target: Serine/threonine-protein kinase ULK1 (Homo sapiens) (UniProt O75385); conditions: Compound concentration 1000.0 nM
[27] = target: Serine/threonine-protein kinase DCLK2 (Homo sapiens) (UniProt Q8N568); conditions: Compound concentration 1000.0 nM
[28] = target: Macrophage-stimulating protein receptor (Homo sapiens) (UniProt Q04912); conditions: Compound concentration 1000.0 nM
[29] = target: Mitogen-activated protein kinase 14 (Homo sapiens) (UniProt Q16539); conditions: Compound concentration 1000.0 nM
[30] = target: Serine/threonine-protein kinase WNK4 (Homo sapiens) (UniProt Q96J92); conditions: Compound concentration 1000.0 nM
[31] = target: Fibroblast growth factor receptor 4 (Homo sapiens) (UniProt P22455); conditions: Compound concentration 1000.0 nM
[32] = target: Fibroblast growth factor receptor 2 (Homo sapiens) (UniProt P21802); conditions: Compound concentration 1000.0 nM
[33] = target: Dual specificity mitogen-activated protein kinase kinase 4 (Homo sapiens) (UniProt P45985); conditions: Compound concentration 1000.0 nM
[34] = target: Serine/threonine-protein kinase Chk2 (Homo sapiens) (UniProt O96017); conditions: Compound concentration 1000.0 nM
Serine/threonine-protein kinase Chk2 (Homo sapiens), sequence (O96017 whole entry): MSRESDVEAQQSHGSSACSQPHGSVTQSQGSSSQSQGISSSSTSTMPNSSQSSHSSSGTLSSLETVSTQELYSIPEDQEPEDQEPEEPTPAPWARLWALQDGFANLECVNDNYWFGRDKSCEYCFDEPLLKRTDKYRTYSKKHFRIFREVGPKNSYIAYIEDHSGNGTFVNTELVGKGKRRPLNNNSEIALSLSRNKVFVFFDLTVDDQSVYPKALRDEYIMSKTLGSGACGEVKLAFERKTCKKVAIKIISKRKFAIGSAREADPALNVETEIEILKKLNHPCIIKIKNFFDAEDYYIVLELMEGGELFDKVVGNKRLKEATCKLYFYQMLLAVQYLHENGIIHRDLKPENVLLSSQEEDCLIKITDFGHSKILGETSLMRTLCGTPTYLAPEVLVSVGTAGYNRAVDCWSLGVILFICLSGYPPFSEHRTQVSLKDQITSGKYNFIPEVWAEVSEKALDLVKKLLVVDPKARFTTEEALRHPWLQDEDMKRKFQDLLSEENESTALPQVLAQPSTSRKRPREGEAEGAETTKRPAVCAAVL

[35] = target: Serine/threonine-protein kinase tousled-like 1 (Homo sapiens) (UniProt Q9UKI8); conditions: Compound concentration 1000.0 nM
[36] = target: Mitogen-activated protein kinase kinase kinase 2 (Homo sapiens) (UniProt Q9Y2U5); conditions: Compound concentration 1000.0 nM
[37] = target: Homeodomain-interacting protein kinase 1 (Homo sapiens) (UniProt Q86Z02); conditions: Compound concentration 1000.0 nM
[38] = tested on: Phosphatidylinositol 4,5-bisphosphate 3-kinase catalytic subunit alpha isoform (Homo sapiens), P42336 [H1047L]; conditions: Compound concentration 1000.0 nM
[39] = target: Rhodopsin kinase GRK7 (Homo sapiens) (UniProt Q8WTQ7); conditions: Compound concentration 1000.0 nM
[40] = target: Serine/threonine-protein kinase DCLK1 (Homo sapiens) (UniProt O15075); conditions: Compound concentration 1000.0 nM
[41] = target: Casein kinase I isoform gamma-1 (Homo sapiens) (UniProt Q9HCP0); conditions: Compound concentration 1000.0 nM
[42] = target: Phosphatidylinositol 5-phosphate 4-kinase type-2 beta (Homo sapiens) (UniProt P78356); conditions: Compound concentration 1000.0 nM
Phosphatidylinositol 5-phosphate 4-kinase type-2 beta (Homo sapiens), sequence (P78356 whole entry): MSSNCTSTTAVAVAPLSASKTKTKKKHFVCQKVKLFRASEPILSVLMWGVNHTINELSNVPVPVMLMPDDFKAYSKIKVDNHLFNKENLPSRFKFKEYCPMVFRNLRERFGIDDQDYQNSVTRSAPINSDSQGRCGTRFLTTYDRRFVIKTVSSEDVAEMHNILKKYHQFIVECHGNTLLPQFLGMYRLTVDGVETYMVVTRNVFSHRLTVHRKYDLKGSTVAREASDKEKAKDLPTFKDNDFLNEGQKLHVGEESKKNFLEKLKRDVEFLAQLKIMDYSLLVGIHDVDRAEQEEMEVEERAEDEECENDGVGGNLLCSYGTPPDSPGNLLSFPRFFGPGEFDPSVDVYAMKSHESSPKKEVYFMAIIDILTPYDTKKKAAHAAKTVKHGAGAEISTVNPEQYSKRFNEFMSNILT

[43] = tested on: Tyrosine-protein kinase ABL1 (Homo sapiens), P00519 [H396P]; conditions: Compound concentration 1000.0 nM
[44] = target: Serine/threonine-protein kinase 33 (Homo sapiens) (UniProt Q9BYT3); conditions: Compound concentration 1000.0 nM
[45] = target: Serine/threonine-protein kinase PLK3 (Homo sapiens) (UniProt Q9H4B4); conditions: Compound concentration 1000.0 nM
Serine/threonine-protein kinase PLK3 (Homo sapiens), sequence (Q9H4B4 whole entry, looked up): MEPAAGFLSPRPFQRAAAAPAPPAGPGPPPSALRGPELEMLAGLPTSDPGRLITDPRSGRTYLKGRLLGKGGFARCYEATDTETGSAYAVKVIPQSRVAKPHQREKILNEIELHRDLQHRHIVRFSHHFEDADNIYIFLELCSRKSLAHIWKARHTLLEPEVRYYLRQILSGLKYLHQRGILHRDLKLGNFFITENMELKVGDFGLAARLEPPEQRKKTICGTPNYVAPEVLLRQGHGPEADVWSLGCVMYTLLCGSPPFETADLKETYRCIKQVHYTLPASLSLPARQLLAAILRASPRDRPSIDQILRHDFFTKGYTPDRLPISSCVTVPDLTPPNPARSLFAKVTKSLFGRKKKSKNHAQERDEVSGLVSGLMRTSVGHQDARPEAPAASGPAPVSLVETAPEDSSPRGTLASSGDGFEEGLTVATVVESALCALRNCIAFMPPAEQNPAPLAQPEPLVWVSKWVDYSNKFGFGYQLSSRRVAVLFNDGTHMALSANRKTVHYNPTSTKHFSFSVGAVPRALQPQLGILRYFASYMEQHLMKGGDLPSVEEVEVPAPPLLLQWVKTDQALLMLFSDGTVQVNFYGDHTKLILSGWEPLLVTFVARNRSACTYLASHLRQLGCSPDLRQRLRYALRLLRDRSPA

In the case of `CC1=C(C#N)C(c2ccc3[nH]nc(C)c3c2)C(C#N)=C(C)N1` [BAY-474], the inhibition [1] is reported as 0%, the inhibition [2] is reported as -5% and the inhibition [3] is reported as -4%. For the same compound, the inhibition [4] was -5%, the inhibition [5] was -7% and the inhibition [6] was 2%. It also gave an inhibition [7] of -1%, an inhibition [8] of 46% and an inhibition [9] of -3%. The IC90 (MKN-45) was 24 nM (active), the inhibition [10] was -2% and the inhibition [11] was -5%. For the same compound, the inhibition [12] was 6%.

`CC1=C(C#N)[C@@H](c2ccc3[nH]nc(C)c3c2)C(C#N)=C(c2ccc(Cl)cc2)N1` [BAY-827] was tested, and the residual activity [13] was 97.9%, the residual activity [14] was 100% and the residual activity [15] was 82.9%. The residual activity [16] was 85.4%, the residual activity [17] was 100% and the residual activity [18] was 100%. It also gave a residual activity [19] of 100%, a residual activity [20] of 100% and a residual activity [21] of 79.5%. The residual activity [22] was 100%, the residual activity [23] was 100% and the residual activity [24] was 100%. For the same compound, the residual activity [25] was 98.5%, the residual activity [26] was 100% and the residual activity [27] was 97.9%. It also gave a residual activity [28] of 70.2%, a residual activity [29] of 100% and a residual activity [30] of 100%. For the same compound, the residual activity [31] was 100%, the residual activity [32] was 74.3% and the residual activity [33] was 71.5%. For the same compound, the residual activity [34] was 100%, the residual activity [35] was 100% and the residual activity [36] was 72.2%. For the same compound, the residual activity [37] was 56.7%, the residual activity [38] was 100% and the residual activity [39] was 100%. The residual activity [40] was 79.2%, the residual activity [41] was 100% and the residual activity [42] was 69.3%. For the same compound, the residual activity [43] was 79.9%, the residual activity [44] was 90.9% and the residual activity [45] was 77.5%.
